From patent US4703047A, “1-Cyclopropyl-1,4-dihydro-4-oxo-7-(4-(2-oxo-1,3-dioxol-4-yl- methyl)-1-piperazinyl)-3-quinolinecarboxylic acid antibacterial agents” (Bayer Aktiengesellschaft, priority 1985, dated 1987)
≈ marks a conversion by molar mass, not a printed value.

Legend:
Assay in all cases: MIC, agar dilution test/Isosensitest agar
Conditions in all cases: unit assumed
E. coli Neumann = assay type: cell-based, Escherichia coli
Description: (§1) |(agar dilution test/Isosensitest agar)

Serratia 16040 = assay type: cell-based
Description: as §1

Staphylococcus FK 422 = assay type: cell-based
Description: as §1

Proteus vulgaris 1017 = assay type: cell-based
Description: as §1

Klebsiella 8085 = assay type: cell-based
Description: as §1

Pseudomonas Ellsworth = assay type: cell-based
Description: as §1

Streptococcus 27101 = assay type: cell-based
Description: as §1

Providencia 12012 = assay type: cell-based
Description: as §1

- MIC (E. coli Neumann): ≤ 0.015 µg/mL
- MIC (Serratia 16040): 8 µg/mL (≈ 18 µM)
- MIC (Staphylococcus FK 422): 0.25 µg/mL (≈ 0.564 µM)
- MIC (Proteus vulgaris 1017): ≤ 0.015 µg/mL
- MIC (Klebsiella 8085): ≤ 0.015 µg/mL
- MIC (Pseudomonas Ellsworth): 0.06 µg/mL (≈ 0.135 µM)
- MIC (Streptococcus 27101): 0.5 µg/mL (≈ 1.13 µM)
- MIC (Providencia 12012): 0.03 µg/mL (≈ 0.0677 µM)
SMILES: Cc1oc(=O)oc1CN1CCN(c2cc3c(cc2F)c(=O)c(C(=O)O)cn3C2CC2)CC1 [Example 1, 1-Cyclopropyl-6-fluoro-1,4-dihydro-7-[4-(5-methyl-2-oxo-1,3-dioxol-4-yl-methyl)-1-piperazinyl]-4-oxo-3-quinolinecarboxylic acid]
